In paper PMC11855827, “High-Throughput Screening of Five Compound Libraries for Anthelmintic Activity and Toxicity Leads to the Discovery of Two Flavonoid Compounds” (International Journal of Molecular Sciences, 2025):
Several values for one entry are separate records, joined by “and”; a condition that tells them apart may be missing. Equal values may be shown once.

Tested on: C. elegans
Settings: Table S2, C. elegans SS assay, 110 μM, averages of 4 data points

SMILES	Percentage of motility inhibition 0 h	Percentage of motility inhibition 24 h
C=C1C(=O)O[C@@H]2/C=C(/C)C(OC(C)=O)C/C=C(/C=O)CC(OC(=O)/C(C)=C/CO)[C@@H]12 (stereo partly shown) [Eupalinolide O]	1%	9%
C=C1[C@H](OC(=O)c2ccccc2)C[C@H]2[C@@H](/C=C(\C)C(=O)[C@@]3(OC(C)=O)C[C@H](C)[C@H](OC(=O)c4ccccc4)[C@@H]3[C@H]1OC(C)=O)C2(C)C [Euphorbia Factor L2]	27%	21%
CC(=O)OC/C1=C\[C@H]2[C@@H](OC(=O)/C=C/c3ccccc3)[C@@H](C)C[C@]2(OC(C)=O)C(=O)/C(C)=C/[C@@H]2[C@H](CC1)C2(C)C [Euphorbia factor L7a]	21%	23%
CC(=O)OC/C1=C/C[C@H]2[C@@H](/C=C(\C)C(=O)[C@@]3(OC(C)=O)C[C@H](C)[C@H](OC(=O)c4ccccc4)[C@@H]3[C@H]1OC(C)=O)C2(C)C [Euphorbia factor L7b]	14%	37%
Cl.Cl.O=C(C[C@H]1NCCC[C@@H]1O)Cn1cnc2ccccc2c1=O [Febrifugine (dihydrochloride)]	30%	2%
Clc1ccc(C(Cn2ccnc2)OCc2ccc(Sc3ccccc3)cc2)c(Cl)c1.O=[N+]([O-])O (stereo not shown) [Fenticonazole (Nitrate)]	45%	13%
C=CC1=C(C)c2cc3[n-]c(cc4[n-]c(cc5nc(cc1n2)C(C)=C5C=C)c(C)c4CCC(=O)O)c(CCC(=O)O)c3C.[Fe+2] [Ferroheme]	0%	0%
COc1cc(/C=C/C(=O)[O-])ccc1O.[Na+] [Ferulic acid (sodium)]	10%	0%
COc1cc(/C=C/C(=O)O)ccc1O [Ferulic acid]	58%	8%
CCN1C[C@@]2(COC)[C@H]3[C@@H](OC)[C@H]4[C@@H]1[C@]3([C@@H](OC)C[C@H]2OC(C)=O)[C@@H]1C[C@@]2(O)[C@H](OC(=O)c3ccccc3)[C@@H]1[C@]4(OC(C)=O)[C@@H](O)[C@@H]2OC [Flaconitine]	13% and 5%	–
C[C@@H]1O[C@@H]1P(=O)([O-])[O-].[Ca+2] [Fosfomycin (calcium)]	4%	0%
C/C1=C\C(=O)c2c(C)coc2C/C(C)=C/CC1 [Furanodienone]	0%	0%
CC(=O)O[C@H]1C[C@@]2(C)[C@@H](C[C@@H](O)[C@H]3[C@@]4(C)CC[C@@H](O)[C@@H](C)[C@@H]4CC[C@@]32C)/C1=C(\CCC=C(C)C)C(=O)[O-].[Na+] [Fusidic acid (sodium salt)]	–	35% and 44%
C/C=C1/[C@H](O[C@@H]2O[C@H](CO)[C@@H](O)[C@H](O)[C@H]2O)OC=C(C(=O)OC)[C@H]1CC(=O)OC[C@H]1O[C@@H](OCCc2ccc(OC(=O)C[C@@H]3C(C(=O)OC)=CO[C@@H](O[C@@H]4O[C@H](CO)[C@@H](O)[C@H](O)[C@H]4O)/C3=C/C)cc2)[C@H](O)[C@@H](O)[C@@H]1O [GL3]	0%	18%
CC(C)OC(=O)[C@H](C)N[P@](=O)(CO[C@H](C)Cn1cnc2c(N)ncnc21)Oc1ccccc1.O=C(O)/C=C/C(=O)O [GS‐7340 (fumarate)]	20%	8%
CC(C)OC(=O)[C@H](C)N[P@](=O)(CO[C@H](C)Cn1cnc2c(N)ncnc21)Oc1ccccc1.CC(C)OC(=O)[C@H](C)N[P@](=O)(CO[C@H](C)Cn1cnc2c(N)ncnc21)Oc1ccccc1.O=C(O)/C=C/C(=O)O [GS‐7340 (hemifumarate)]	21%	0%
Br.COc1ccc2c3c1O[C@H]1C[C@@H](O)C=C[C@@]31CCN(C)C2 [Galanthamine (hydrobromide)]	2% and 0%	–
COc1ccc2c3c1O[C@H]1C[C@@H](O)C=C[C@@]31CC[N+](C)([O-])C2 (stereo partly shown) [Galanthamine N‐Oxide]	3%	4%

SMILES	Percentage of motility inhibition 0 h	Percentage of motility inhibition 24 h
CC(C)=CCN=C(N)N.Cl [Galegine (hydrochloride)]	0%	0%
O.O=C(O)c1cc(O)c(O)c(O)c1 [Gallic acid (hydrate)]	6%	7%
CCCN1C[C@H](C)[C@@H](O)[C@](C)(O)[C@@H](CC)OC(=O)[C@H](C)[C@@H](O[C@H]2C[C@@](C)(OC)[C@@H](O)[C@H](C)O2)[C@H](C)[C@@H](O[C@@H]2O[C@H](C)C[C@H](N(C)C)[C@H]2O)[C@](C)(O)C[C@H]1C [Gamithromycin]	37%	44%
C[C@H](CC(=O)C[C@](C)(O)[C@@H]1CC(=O)[C@@]2(C)C3=C(C(=O)C[C@]12C)[C@@]1(C)CC[C@H](O)C(C)(C)[C@@H]1C[C@@H]3O)C(=O)O [Ganoderic acid I]	0%	11%
CC(CC(=O)CC(C)(O)C1CC(=O)C2(C)C3=C(C(=O)CC12C)C1(C)CCC(=O)C(C)(C)C1CC3O)C(=O)O (stereo not shown) [Ganoderic acid N]	0%	0%
CC(CC(=O)CC(C)[C@H]1CC(=O)C2(C)C3=C(C(=O)C(=O)C12C)C1(C)CCC(=O)C(C)(C)[C@@H]1CC3=O)C(=O)O (stereo partly shown) [Ganosporeric acid A]	36%	9%
CCNCc1nc2c(N)nc3ccccc3c2n1CC(C)(C)O.O=C(O)C(F)(F)F [Gardiquimod trifluoroacetate]	33%	0%
CS(=O)(=O)O.C[C@H]1NCc2cc(-c3ccc4c(=O)c(C(=O)O)cn(C5CC5)c4c3OC(F)F)ccc21.O [Garenoxacin (Mesylate hydrate)]	61%	25%
C/C=C1/CN2CCc3c([nH]c4ccccc34)[C@@H]2C[C@@H]1/C(=C/OC)C(=O)OC [Geissoschizine methyl ether]	0%	19%
COC(=O)C1=CO[C@@H](O[C@@H]2O[C@H](CO[C@@H]3O[C@H](CO)[C@@H](O)[C@H](O)[C@H]3O)[C@@H](O)[C@H](O)[C@H]2O)[C@@H]2C(CO)=CC[C@H]12 [Genipin 1-β-D-gentiobioside]	0%	17%
CC(C)=C1C/C=C(\C)CC/C=C(\C)CC1=O [Germacrone]	12%	9%
CC1=C2[C@@H](OC1=O)[C@H](O)[C@]13[C@H]4C[C@@H](C(C)(C)C)[C@]15[C@@H](OC(=O)[C@@H]5O)O[C@@]23C(=O)O4 [Ginkgolide K]	0%	2%
CC(C)=CCC[C@](C)(O[C@@H]1O[C@H](CO)[C@@H](O)[C@H](O)[C@H]1O)[C@H]1CC[C@]2(C)[C@@H]1[C@H](O)C[C@@H]1[C@@]3(C)CC[C@H](O)C(C)(C)[C@@H]3CC[C@]12C [Ginsenoside C-K]	4%	22%
CC(C)=CCC[C@](C)(O[C@@H]1O[C@H](CO[C@@H]2OC[C@H](O[C@@H]3OC[C@@H](O)[C@H](O)[C@H]3O)[C@H](O)[C@H]2O)[C@@H](O)[C@H](O)[C@H]1O)[C@H]1CC[C@]2(C)[C@@H]1[C@H](O)C[C@@H]1[C@@]3(C)CC[C@H](O[C@@H]4O[C@H](CO)[C@@H](O)[C@H](O)[C@H]4O[C@@H]4O[C@H](CO)[C@@H](O)[C@H](O)[C@H]4O)C(C)(C)[C@@H]3CC[C@]12C [Ginsenoside Ra1]	0%	0%
C=C(CCC=C(C)C)[C@H]1CC[C@]2(C)[C@@H]1[C@H](O)C[C@@H]1[C@@]3(C)CC[C@H](O)C(C)(C)[C@@H]3[C@@H](O[C@@H]3O[C@H](CO)[C@@H](O)[C@H](O)[C@H]3O[C@@H]3O[C@@H](C)[C@H](O)[C@@H](O)[C@H]3O)C[C@]12C [Ginsenoside Rg6]	1%	4%
C=C(CCC=C(C)C)[C@H]1CC[C@]2(C)[C@@H]1[C@H](O)C[C@@H]1[C@@]3(C)CC[C@H](O[C@@H]4O[C@H](CO)[C@@H](O)[C@H](O)[C@H]4O[C@@H]4O[C@H](CO)[C@@H](O)[C@H](O)[C@H]4O)C(C)(C)[C@@H]3CC[C@]12C [Ginsenoside Rk1]	4%	0%
C=C(CCC=C(C)C)[C@H]1CC[C@]2(C)[C@@H]1[C@H](O)C[C@@H]1[C@@]3(C)CC[C@H](O)C(C)(C)[C@@H]3[C@@H](O[C@@H]3O[C@H](CO)[C@@H](O)[C@H](O)[C@H]3O)C[C@]12C [Ginsenoside Rk3]	0%	19%
